According to patent publication US12404243B2, “Inhibitors of the Wnt/beta-catenin pathway” (The Regents of the University of California, priority 2018, dated 2025):
Entries after “also recorded” stand apart in the source; their conditions may differ.

Key:
SW480 tumor xenografts = test: Mouse xenografts of SW480 cells; type: in vivo, nude mice; details: for tumor volumes / tumor sizes at the end of treatment / tumor weights at the end of treatment / actual tumor sizes at the end of treatment / actual tumor weights at the end of treatment / tumor volume: SW480 xenografts, 10 mg/kg; for actual tumor weights at the end of treatment: day 12 to day 20 (FIG. 8C); for tumor volume: day 12 to day 21 (FIG. 9A); for tumor growth: mouse xenograft studies of human colon cancer, summary of FIGS. 7A-D, 8A-C, 9A-C
Protocol: 5×10^5 of SW480 cells were injected subcutaneously into the flank area of 6-8-week-old nude mice. Tumor volume was measured by using an electronic caliper and calculated with the formula length×width^2×0.5, every 2 days. 12 days after inoculation, tumor bearing mice were administered Wnt inhibitors (dissolved in 10% DMSO+20% Cremophor EL+70% normal saline) via intraperitoneal injection for 5 days per week for 10 days at 10 mg/kg. Animal body weights were measured before drug treatments and at the end of the experiments. At the end of the experiments, animals were euthanized with carbon dioxide, followed by cervical dislocation. The tumors were dissected and weighed on the digital balance. We housed mice in pathogen-free facilities under 12-h light and 12-h dark cycle. The animal protocol and experimental procedures were approved by the Division of Laboratory Animal Medicine of UCLA and were in accordance with the US National Institute of Health guidelines.

[1] = test system: Wnt/β-catenin-mediated transcription; test: TCF-luciferase activity assay in 293T/Top/β-cat* cells; type: cell-based; details: summary of FIGS. 5A, B (293T/Top cells + LiCl) and 6A-C (293T/Top/β-cat* cells)
Protocol: (§1) 293T cells were maintained in DMEM medium containing 10% FBS and antibiotics (penicillin and streptomycin) at 37° C. in 5% CO2. Cells were stably infected with lentiviruses expressing the TopFlash reporter (293T/Top cells). The β-catenin mutant (β-cat*, the constitutively active mutant) construct was prepared using the retroviral expression vector by standard PCR. For viral transduction, retrovirus was obtained by co-trasfection of pQCXIP-β-cat* with packaging plasmids into 293T cells following the manufacturer's instructions. 293T/Top stable cells were seeded in 10 cm dish and incubated overnight. The next day cells were treated with retroviral particles. After 12 hours, the medium was replaced with fresh medium. 2 days post virus infection, the cells were selected with puromycin for 5 days to generate the 293T/Top/β-cat* stable cell line.
293 T/Top/β-cat* cells were plated at 40%-50% confluences in 12-well plate for 8 hours and then treated with Wnt inhibitors overnight. The luciferase activity of total cell lysates was measured using Luciferase Assay System (Promega). The related TCF-luciferase activity was normalized against the protein concentration of each cell lysate sample.

[2] = test system: Wnt/β-catenin-mediated transcription; test: Topflash reporter activity induced by LiCl in 293T/Top cells; type: cell-based; details: 20 mM LiCl, increasing concentration of JC001 (FIG. 5A)
Protocol: as §1

SMILES	tumor volumes (SW480 tumor xenografts; day 12 to 22 (FIG. 7A))	tumor sizes at the end of treatment (SW480 tumor xenografts; day 12 to 22 (FIG. 7B))	tumor weights at the end of treatment (SW480 tumor xenografts; day 12 to 22 (FIG. 7C))	actual tumor sizes at the end of treatment (SW480 tumor xenografts; day 12 to 22 (FIG. 16A))	tumor weights at the end of treatment (SW480 tumor xenografts; day 12 to 22 (FIG. 16B))	tumor volumes (SW480 tumor xenografts; day 12 to 22 (FIG. 16C))	tumor volumes (SW480 tumor xenografts; day 12 to day 20 (FIG. 8A))	actual tumor sizes at the end of treatment (SW480 tumor xenografts; day 12 to day 20 (FIG. 8B))	actual tumor weights at the end of treatment (SW480 tumor xenografts)	tumor volume (SW480 tumor xenografts)	tumor sizes at the end of treatment (SW480 tumor xenografts; day 12 to day 21 (FIG. 9B))	tumor weights at the end of treatment (SW480 tumor xenografts; day 12 to day 21 (FIG. 9C))	tumor growth (SW480 tumor xenografts)	Wnt/β-catenin-mediated transcription [1]	Topflash reporter activities induced by LiCl [2]
CCN(CC)CCC(=O)N1C/C(=C\c2ccc(F)c(F)c2)C(=O)/C(=C/c2ccc(F)c(F)c2)C1 [JC049, 1-(3-(Diethylamino)propanoyl)-3,5-bis((E)-3,4-difluorobenzylidene)piperidin-4-one]	significantly reduced tumor volumes	significantly reduced the size of tumors recovered	significantly reduced the weight of tumors recovered	reduced the size of tumors recovered	significantly reduced the weight of tumors recovered	significantly reduced tumor volumes	significantly reduced tumor volumes	reduced the size of tumors recovered	significantly reduced the weight of tumors recovered	significantly reduce tumor volume	significantly reduced the size of the tumors recovered	significantly reduce the weight of tumors recovered	significantly inhibited the tumor growth; also recorded: showed the strongest inhibition	significantly inhibited	
CN(C)CCS(=O)(=O)N1C/C(=C\c2ccc(F)c(F)c2)C(=O)/C(=C/c2ccc(F)c(F)c2)C1 [JC060, 3,5-Bis((E)-3,4-difluorobenzylidene)-1-((2-(dimethylamino)ethyl)sulfonyl)piperidin-4-one]	significantly reduced tumor volumes	significantly reduced the size of tumors recovered	significantly reduced the weight of tumors recovered							significantly reduce tumor volume	significantly reduced the size of the tumors recovered	significantly reduce the weight of tumors recovered	significantly inhibited the tumor growth	significantly inhibited	
CN(C)CCC(=O)N1C/C(=C\c2ccccc2)C(=O)/C(=C/c2ccccc2)C1 [JC001, 3,5-Di((E)-benzylidene)-1-(3-(dimethylamino)propanoyl)piperidin-4-one]							significantly reduced tumor volumes	reduced the size of tumors recovered	significantly reduced the weight of tumors recovered					significantly inhibited	inhibit Topflash reporter activities
CN(C)CCC(=O)NC1C/C(=C\c2ccc(F)c(F)c2)C(=O)/C(=C/c2ccc(F)c(F)c2)C1 (stereo not drawn) [JC070, N-(3,5-Bis((E)-3,4-difluorobenzylidene)-4-oxocyclohexyl)-3-(dimethylamino)propanamide]	significantly reduced tumor volumes	significantly reduced the size of tumors recovered	significantly reduced the weight of tumors recovered										showed some inhibition, but did not reach significance	significantly inhibited	
CN(C)CCOc1ccc(C(=O)NC2C/C(=C\c3ccc(F)c(F)c3)C(=O)/C(=C/c3ccc(F)c(F)c3)C2)cc1 (stereo not drawn) [JC081, N-(3,5-Bis((E)-3,4-difluorobenzylidene)-4-oxocyclohexyl)-4-(2-(dimethylamino)ethoxy)benzamide]										significantly reduce tumor volume	significantly reduced the size of the tumors recovered	significantly reduce the weight of tumors recovered	significantly inhibited the tumor growth	significantly inhibited	
CN(C)CCC(=O)N1C/C(=C\c2ccc(F)c(F)c2)C(=O)/C(=C/c2ccc(F)c(F)c2)C1 [JC026, 3,5-Bis((E)-3,4-difluorobenzylidene)-1-(3-(dimethylamino)propanoyl)piperidin-4-one]	significantly reduced tumor volumes	significantly reduced the size of tumors recovered	significantly reduced the weight of tumors recovered										significantly inhibited the tumor growth	significantly inhibited	
